3 compounds from paper PMC4338435, “Design and Application of a Novel High-throughput Screening Technique for 1-Deoxynojirimycin” (Scientific Reports, 2015) can be followed below.

The target of test [1] is T1, LacS (Saccharolobus solfataricus, UniProt P22498).
T1 sequence (P22498 1-489): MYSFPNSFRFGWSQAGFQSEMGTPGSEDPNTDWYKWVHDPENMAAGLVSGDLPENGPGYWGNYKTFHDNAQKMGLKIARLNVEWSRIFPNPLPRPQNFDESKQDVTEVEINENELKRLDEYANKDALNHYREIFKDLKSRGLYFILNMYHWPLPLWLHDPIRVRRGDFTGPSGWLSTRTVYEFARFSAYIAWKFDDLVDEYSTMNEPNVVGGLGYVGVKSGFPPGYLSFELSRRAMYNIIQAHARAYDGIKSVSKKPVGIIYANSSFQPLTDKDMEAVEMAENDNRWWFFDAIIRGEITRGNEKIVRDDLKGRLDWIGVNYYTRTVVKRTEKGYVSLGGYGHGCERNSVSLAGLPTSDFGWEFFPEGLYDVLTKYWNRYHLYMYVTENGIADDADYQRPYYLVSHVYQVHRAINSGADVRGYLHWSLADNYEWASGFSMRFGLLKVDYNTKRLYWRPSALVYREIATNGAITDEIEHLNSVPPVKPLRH
The experiment in a line: inhibition of oNPG hydrolysis, A420. Set-up: recombinant full-length LacS; purified for in vitro assay; lacS also integrated in E. coli BW25113 (BWLacS). Particulars: buffer Z, oNPG substrate, 37°C, 10 min. It is filed as biochemical.

Test [2] has as its target T1, LacS. The experiment in a line: blue-white colony assay on LB agar, E. coli BWLacS. As to conditions: 40 μg/mL X-GAL, 1 mM L-arabinose. Set-up: lacS also integrated in E. coli BW25113 (BWLacS). It is filed as cell-based.

In the case of `OC[C@H]1NC(O)[C@@H](O)[C@@H](O)[C@@H]1O` (stereo partly drawn) [MJ], the LacS inhibition rate entry on LacS [1] (unstable MJ tested as reaction mixture of purified GutB1 with ADM and NAD+, not isolated) is reported as “MJ was also found to inhibit the activity of LacS (Figure S3)”.
Turning to `OC[C@H]1O[C@@H](Oc2c[nH]c3ccc(Br)c(Cl)c23)[C@H](O)[C@@H](O)[C@H]1O` [X-GAL], the “blue-white colony assay on LB agar, E. coli BWLacS” value at LacS [2] is recorded as “inhibitory effect of 1-DNJ on the LacS activity toward 5-bromo-4-chloro-3-indolyl β-D-galactopyranoside (X-GAL)”.
For `OC[C@H]1NC[C@H](O)[C@@H](O)[C@@H]1O` [1-DNJ], on LacS [1], the LacS inhibition rate is 1-DNJ was found able to inhibit LacS on its o-nitrophenyl-β-D-galactopyranoside (oNPG) hydrolysis activity.
